In one test the target is T1, brain CCK receptor (Mus musculus, UniProt P56481).
T1 construct: from tissue; host or cells: forebrain membranes of male CF-1 mice
T1 sequence (P56481 1-453): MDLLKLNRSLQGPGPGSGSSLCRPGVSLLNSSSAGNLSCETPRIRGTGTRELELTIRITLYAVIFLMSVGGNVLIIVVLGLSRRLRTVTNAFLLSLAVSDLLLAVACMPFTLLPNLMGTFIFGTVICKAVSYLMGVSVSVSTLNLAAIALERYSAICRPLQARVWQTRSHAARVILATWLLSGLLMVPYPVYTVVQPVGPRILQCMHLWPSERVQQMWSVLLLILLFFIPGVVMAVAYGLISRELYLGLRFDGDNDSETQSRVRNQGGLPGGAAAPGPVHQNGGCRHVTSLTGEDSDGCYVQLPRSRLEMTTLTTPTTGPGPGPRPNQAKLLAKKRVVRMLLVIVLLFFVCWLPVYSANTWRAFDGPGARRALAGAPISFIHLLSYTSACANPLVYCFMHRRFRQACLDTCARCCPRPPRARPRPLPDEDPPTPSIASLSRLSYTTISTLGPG
Nature of the test: CCK receptor binding, mouse brain membranes (125I-CCK-8 sulfate). As to conditions: for IC50: mouse brain membranes, read-out: Brain IC50; for inhibition at 10 µM / inhibition at 1 µM: read-out: Brain Percent Inhibition. The procedure:
Brain CCK receptor binding was performed using mouse brain membranes according to the method of Chang and Lotti (Proc. Natl. Acad. Sci. 83: 4923-4926, 1986). Male CF-1 mice, 23-25 g were sacrificed by cervical dislocation, the forebrain removed and placed in ice cold 50 mM Tris buffer, pH 7.4. The tissue was homogenized in 100 volumes of the Tris buffer with a Brinkman Polytron or Tekmar Tissumizer and then centrifuged at 40,000 g for 10 min. Pellets were resuspended in Tris buffer, centrifuged as above and then resuspended in 100 volumes of assay buffer, pH 6.5 (20 mM N-2-hydroxyethyl-piperazine-N'-2-ethane sulfonic acid (HEPES), 1 mM ethylene glycol his (2-aminoethyl ether-N,N,N',N'-tetraacetic acid) (EGTA), 5 mM MgCl2, 130 mM NaCl, and 0.25 mg/ml bacitracin). The binding assay consisted of 50 μL of compound (or buffer for total binding), 50 μL of ^125 I-CCK-8 sulfate (20 pM) (Amersham IM- 159), 200 μL of assay buffer and 200 μL of homogenate (80-120 μg protein). The samples were incubated at room temperature (25°) for 2 hours, and they were then filtered through GF/B glass fiber filters (soaked in wash buffer for 2 hours before use) using a 48 well Brandel cell harvester designed for receptor binding. The filters were washed twice with 3 ml of 50 mM Tris buffer, pH 7.4, containing 0.01% BSA and then counted for radioactivity in plastic tubes with a Micromedic 10/600 automatic gamma counter.
Compounds were dissolved in dimethyl sulfoxide (DMSO) at a concentration of 10 mM and then further diluted with assay buffer. The concentration of DMSO in the incubation was 0.1% or less and had no effect on the assay at that level. IC-50 values of displacement curves were determined using 7 concentrations of compound and were calculated using the ALLFIT computer program of DeLean, Munson and Rodbard (Am. J. Physiol. 235: E97-E102, 1978). Non-specific binding was determined as the displacement of the radioligand by 100 nM CCK-8 sulfate.

The target of test [1] is T2, peripheral type CCK receptors in rat pancreas (Rattus norvegicus, UniProt P30551).
T2 construct: Pancreas was obtained from male Sprague-Dawley rats; from tissue; host or cells: pancreas membranes of male Sprague-Dawley rats
T2 sequence (P30551 1-444): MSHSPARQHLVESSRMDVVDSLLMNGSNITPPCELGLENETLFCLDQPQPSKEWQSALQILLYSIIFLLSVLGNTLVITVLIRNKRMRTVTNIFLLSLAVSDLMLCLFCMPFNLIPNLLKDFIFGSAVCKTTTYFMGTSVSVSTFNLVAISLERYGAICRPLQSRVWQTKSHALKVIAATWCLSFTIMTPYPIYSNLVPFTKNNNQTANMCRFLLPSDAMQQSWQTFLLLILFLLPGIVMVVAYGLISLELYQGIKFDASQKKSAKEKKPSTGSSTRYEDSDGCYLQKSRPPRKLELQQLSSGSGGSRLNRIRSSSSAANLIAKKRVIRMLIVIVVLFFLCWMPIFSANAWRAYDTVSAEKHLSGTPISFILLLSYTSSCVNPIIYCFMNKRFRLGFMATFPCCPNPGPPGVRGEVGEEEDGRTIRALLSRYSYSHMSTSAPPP
Nature of the test: Binding to peripheral type CCK receptors in rat pancreas (3H-L-364,718). As to conditions: at 10 μM; read-out: Pancreas Percent Inhibition. The procedure: Binding to peripheral type CCK receptors in rat pancreas was done according to the method of Chang et al. (Mol. Pharmacol. 30: 212-217, 1986) using ^3 H-L364, 718. Pancreas was obtained from male Sprague-Dawley rats, 150-200 g, after decapitation, and dissected free from adipose and connective tissue. The tissue was homogenized in 30 volumes of 50 mM Tris buffer, pH 7.4 and centrifuged at 40,000 g for 10 min. The tissue pellet was washed by resuspension and centrifugation as described above. The final pellet was suspended in 500 volumes of assay buffer (50 mM Tris buffer, pH 7.4, 5 mM MgCl2, 0.14 mg/ml bacitracin, and 5 mM dithiothreitol) to give a protein concentration of 30-60 μg/200 μl . Reagent volumes for the assay were the same as those used for CCK binding to brain membranes. Tritium labeled L-364,718 (Dupont NEN, NET-971) was used as the ligand at a concentration of 0.4-0.6 nM. The samples were incubated 1 hour at room temperature and then filtered as described for the CCK-brain receptor. Scintillation cocktail was added to the filters which were counted for radioactivity using a Micromedic Taurus automatic liquid scintillation counter.
Compound samples were prepared and IC-50 values were determined as described for the CCK-brain experiments. Non-specific binding was that amount left bound to the filters after adding 100 nM L-364,718.

What is called IC50 is the concentration that inhibits the measured activity by half. As usually defined, the inhibition is how much of the control response was suppressed.

Consider `C[C@@H](NC(=O)N1NC(=O)C(c2ccccc2)C1c1ccccc1)c1ccccc1` (some centres unmarked) [Example 102], for which the IC50 at brain CCK receptor came out at 4.7 µM. The inhibition at 10 µM in test [1] stood at 11%.

For the compound `O=C1NN(c2nc3ccccc3o2)[C@@H](c2ccccc2)[C@@H]1c1ccccc1` (relative stereo) [Example 87], the inhibition at 10 µM on brain CCK receptor worked out at 47%; in test [1], 23%.

With `O=C1NN(C(=O)Nc2ccc(C3CCCCC3)cc2)[C@@H](c2ccccc2)[C@@H]1c1ccccc1` (relative stereo) [Example 31], at brain CCK receptor, the inhibition at 1 µM came out at 54%. The inhibition at 10 µM in test [1] was found to be 71%.

Take `C[C@H](NC(=O)N1NC(=O)C(c2ccccc2)C1c1ccccc1)c1ccccc1` (some centres unmarked) [Example 101]: the IC50 on brain CCK receptor turned out to be 1.3 µM. Moreover, in test [1], the inhibition at 10 µM worked out at 7%.

On to `O=C1NN(C(=O)Nc2ccc(Cl)cc2Cl)[C@H](c2ccccc2)[C@H]1c1ccccc1` (relative stereo) [Example 55], for which the IC50 on brain CCK receptor was determined as 0.6 µM. For the same compound, in test [1], the inhibition at 10 µM was found to be 47%.

Regarding `CC(C)C1C(c2ccccc2)C(=O)NN1C(=O)Nc1ccc(Br)cc1` (centres unmarked) [Example 73], the inhibition at 10 µM on brain CCK receptor worked out at 16%; in test [1], 20%.

In the case of `O=C1NN(C(=O)NC2CCc3ccccc3C2)[C@@H](c2ccccc2)[C@@H]1c1ccccc1` (relative stereo) [Example 4, 1-[(2-[1,2,3,4-Tetrahydronaphthyl])aminocarbonyl]-4,5-diphenyl-3-pyrazolidinone], the IC50 at brain CCK receptor worked out at 0.39 µM. The inhibition at 10 µM in test [1] was determined as 78%.

`O=C1NN(C(=O)Nc2cc(Cl)cc(Cl)c2)[C@H](c2ccccc2)[C@H]1c1ccccc1` (relative stereo) [Example 59]: the inhibition at 1 µM on brain CCK receptor was 44%. In addition, the inhibition at 10 µM in test [1] was 75%.

For `O=C1NN(C(=O)Nc2cccc([N+](=O)[O-])c2)[C@H](c2ccccc2)[C@H]1c1ccccc1` (relative stereo) [Example 40], the IC50 on brain CCK receptor was 0.75 µM. For the same compound, the inhibition at 10 µM in test [1] came to 38%.

In the case of `O=C1CC(c2ccc(-c3ccccc3)cc2)N(C(=O)Nc2cccc(Cl)c2Cl)N1` (centres unmarked) [Example 68], on brain CCK receptor, the IC50 is 4.3 µM. In addition, the inhibition at 10 µM in test [1] is 70%.

For the compound `CCCCC1C(c2ccccc2)C(=O)NN1C(=O)Nc1cccc(C(F)(F)F)c1` (centres unmarked) [Example 70], the inhibition at 1 µM at brain CCK receptor was 13%. Moreover, the inhibition at 10 µM in test [1] was found to be 36%.

Take `CCCCc1ccc(NC(=O)N2NC(=O)[C@@H](c3ccccc3)[C@@H]2c2ccccc2)cc1` (relative stereo) [Example 28]: the IC50 at brain CCK receptor is 0.44 µM. The inhibition at 10 µM in test [1] amounted to 55%.

With `O=C1NN(C(=O)NCCc2ccccc2)[C@@H](c2ccccc2)[C@@H]1c1ccccc1` (relative stereo) [Example 105], the IC50 on brain CCK receptor is 0.49 µM. For the same compound, in test [1], the inhibition at 10 µM is 43%.

With `O=C1NN(C(=O)Nc2ccccc2C(F)(F)F)[C@H](c2ccccc2)[C@H]1c1ccccc1` (relative stereo) [Example 53], on brain CCK receptor, the half-maximal inhibitory concentration (IC50) is 1.2 µM. The inhibition at 10 µM in test [1] amounted to 17%.

For `CCCCC1C(=O)NN(C(=O)Nc2ccc(Br)cc2)C1c1ccccc1` (centres unmarked) [Example 69], the IC50 at brain CCK receptor turned out to be 0.5 µM. Further, in test [1], the inhibition at 10 µM was found to be 12%.

Take `O=C(O)COC1=NN(C(=O)Nc2ccc(Br)cc2)[C@@H](c2ccccc2)[C@@H]1c1ccccc1` (relative stereo) [Example 12 (O--), 1-[(4-bromophenyl)aminocarbonyl]-3-carboxymethoxy-4,5-diphenyl-2-pyrazoline]: the concentration for half-maximal inhibition (IC50) at brain CCK receptor turned out to be 0.34 µM. Moreover, the inhibition at 10 µM in test [1] was 64%.

For `O=C1NN(C(=O)Nc2ccc(I)cc2)[C@@H](c2ccccc2)[C@@H]1c1ccccc1` (relative stereo) [Example 21], at brain CCK receptor, the IC50 was found to be 0.057 µM. For the same compound, the inhibition at 10 µM in test [1] was found to be 77%.

As for `O=C1NN(C(=S)Nc2c(F)c(F)c(F)c(F)c2F)[C@H](c2ccccc2)[C@H]1c1ccccc1` (relative stereo) [Example 65], the inhibition at 10 µM on brain CCK receptor is 50%; in test [1] it was 37%.

`O=C1NN(C(=O)Nc2ccc([N+](=O)[O-])cc2)[C@@H](c2ccccc2)[C@@H]1c1ccccc1` (relative stereo) [Example 24]: the half-maximal inhibitory concentration (IC50) on brain CCK receptor was 0.15 µM. Besides, the inhibition at 10 µM in test [1] is 45%.

Consider `O=C1NN(C(=O)Nc2ccc(-c3ccccc3)cc2)[C@@H](c2ccccc2)[C@@H]1c1ccccc1` (relative stereo) [Example 32], for which the inhibition at 1 µM at brain CCK receptor is 42%. Moreover, the inhibition at 10 µM in test [1] is 69%.

Regarding `O=C1NN(C(=O)Nc2cccnc2)[C@@H](c2ccccc2)[C@@H]1c1ccccc1` (relative stereo) [Example 88], the inhibition at 10 µM at brain CCK receptor was found to be 40%; in test [1], 37%.

For `O=C1NN(C(=O)NCc2ccccc2Cl)[C@@H](c2ccccc2)[C@@H]1c1ccccc1` (relative stereo) [Example 98], the inhibition at 10 µM at brain CCK receptor came out at 74%; in test [1], 33%.

As for `CCc1ccc(NC(=O)N2NC(=O)[C@@H](c3ccccc3)[C@@H]2c2ccccc2)cc1` (relative stereo) [Example 26], the IC50 on brain CCK receptor came out at 0.075 µM. In addition, the inhibition at 10 µM in test [1] came out at 47%.

In the case of `O=C1NN(C(=O)Nc2ccc(F)cc2)[C@@H](c2ccccc2)[C@@H]1c1ccccc1` (relative stereo) [Example 17], on brain CCK receptor, the IC50 is 0.52 µM. Also, the inhibition at 10 µM in test [1] came out at 6%.

As to `COc1ccc(NC(=O)N2NC(=O)[C@@H](c3ccccc3)[C@@H]2c2ccccc2)cc1` (relative stereo) [Example 33], the IC50 on brain CCK receptor was determined as 0.34 µM. Further, the inhibition at 10 µM in test [1] stood at 20%.

On to `O=C1NN(C(=O)N2CCc3ccccc3C2)[C@@H](c2ccccc2)[C@@H]1c1ccccc1` (relative stereo) [Example 109], for which the IC50 on brain CCK receptor was found to be 6 µM. Moreover, the inhibition at 10 µM in test [1] came to 11%.

`O=C1NN(C(=O)Nc2cc(C(F)(F)F)ccc2Cl)[C@H](c2ccccc2)[C@H]1c1ccccc1` (relative stereo) [Example 57]: the half-maximal inhibitory concentration (IC50) on brain CCK receptor was 1 µM. Also, in test [1], the inhibition at 10 µM was 45%.

In the case of `Cc1cccc(NC(=O)N2NC(=O)[C@H](c3ccccc3)[C@H]2c2ccccc2)c1` (relative stereo) [Example 41], the inhibition at 10 µM amounted to 57% on brain CCK receptor and 21% in test [1].

Source of the values: patent US5399565A, “Pyrazolidinone CCK and gastrin antagonists and pharmaceutical formulations therof” (priority 1993, dated 1995).
